Measurements: publication PMC6857051, “Proliferative regulation of alveolar epithelial type 2 progenitor cells by human Scnn1d gene” (Theranostics, 2019)

Tests used:
[1] = target: ENaC activity in δ802-ENaC expressing mouse tracheal epithelial (MTE) monolayers; assay: Ussing chamber short-circuit current, δ-ENaC MTE monolayers (induced δ802Tg/Cre); assay type: cell-based
human αβγ-ENaC = target: T1, human αβγ-ENaC (Homo sapiens, UniProt P37088+P51168+P51170); assay: Two-electrode voltage clamp of αβγ-ENaC expressed in Xenopus oocytes; assay type: cell-based
T1 construct: expressed in transfected cells; host or cells: Xenopus laevis oocytes injected with cRNA (pGEM HE vector)
T1 sequence (P37088 1-669): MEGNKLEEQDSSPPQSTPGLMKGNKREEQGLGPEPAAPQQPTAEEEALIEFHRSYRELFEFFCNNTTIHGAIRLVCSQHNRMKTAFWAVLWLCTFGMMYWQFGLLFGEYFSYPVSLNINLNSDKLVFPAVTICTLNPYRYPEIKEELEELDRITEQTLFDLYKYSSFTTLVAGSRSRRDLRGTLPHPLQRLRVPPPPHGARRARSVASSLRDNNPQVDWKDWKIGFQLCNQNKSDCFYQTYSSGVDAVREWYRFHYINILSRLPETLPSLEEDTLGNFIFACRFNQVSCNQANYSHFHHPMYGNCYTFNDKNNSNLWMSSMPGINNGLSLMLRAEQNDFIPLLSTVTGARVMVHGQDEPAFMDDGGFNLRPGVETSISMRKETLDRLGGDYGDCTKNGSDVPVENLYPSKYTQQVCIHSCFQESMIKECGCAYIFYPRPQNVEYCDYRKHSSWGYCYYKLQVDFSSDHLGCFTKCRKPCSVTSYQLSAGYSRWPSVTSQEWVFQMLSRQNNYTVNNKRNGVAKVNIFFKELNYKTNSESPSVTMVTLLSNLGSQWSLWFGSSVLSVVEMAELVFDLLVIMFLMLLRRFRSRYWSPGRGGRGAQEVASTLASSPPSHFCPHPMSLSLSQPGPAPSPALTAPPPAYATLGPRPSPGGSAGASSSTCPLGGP
T1 sequence (P51168 1-640): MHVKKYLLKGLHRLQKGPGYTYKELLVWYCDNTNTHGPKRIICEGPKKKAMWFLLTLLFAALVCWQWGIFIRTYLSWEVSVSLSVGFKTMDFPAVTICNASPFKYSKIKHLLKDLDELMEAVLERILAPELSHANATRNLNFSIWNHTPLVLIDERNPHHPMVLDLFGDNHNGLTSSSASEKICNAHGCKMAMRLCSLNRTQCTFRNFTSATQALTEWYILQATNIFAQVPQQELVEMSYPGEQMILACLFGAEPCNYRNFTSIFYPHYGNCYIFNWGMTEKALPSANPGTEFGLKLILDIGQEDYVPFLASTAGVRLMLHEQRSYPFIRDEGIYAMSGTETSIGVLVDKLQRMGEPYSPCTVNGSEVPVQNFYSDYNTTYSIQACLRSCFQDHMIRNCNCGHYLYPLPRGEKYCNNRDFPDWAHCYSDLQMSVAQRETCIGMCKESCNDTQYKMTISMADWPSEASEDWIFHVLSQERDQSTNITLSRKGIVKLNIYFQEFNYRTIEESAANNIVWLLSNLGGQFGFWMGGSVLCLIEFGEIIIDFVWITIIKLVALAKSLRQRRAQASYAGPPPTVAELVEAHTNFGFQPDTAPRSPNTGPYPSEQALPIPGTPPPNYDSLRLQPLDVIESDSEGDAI
T1 sequence (P51170 1-649): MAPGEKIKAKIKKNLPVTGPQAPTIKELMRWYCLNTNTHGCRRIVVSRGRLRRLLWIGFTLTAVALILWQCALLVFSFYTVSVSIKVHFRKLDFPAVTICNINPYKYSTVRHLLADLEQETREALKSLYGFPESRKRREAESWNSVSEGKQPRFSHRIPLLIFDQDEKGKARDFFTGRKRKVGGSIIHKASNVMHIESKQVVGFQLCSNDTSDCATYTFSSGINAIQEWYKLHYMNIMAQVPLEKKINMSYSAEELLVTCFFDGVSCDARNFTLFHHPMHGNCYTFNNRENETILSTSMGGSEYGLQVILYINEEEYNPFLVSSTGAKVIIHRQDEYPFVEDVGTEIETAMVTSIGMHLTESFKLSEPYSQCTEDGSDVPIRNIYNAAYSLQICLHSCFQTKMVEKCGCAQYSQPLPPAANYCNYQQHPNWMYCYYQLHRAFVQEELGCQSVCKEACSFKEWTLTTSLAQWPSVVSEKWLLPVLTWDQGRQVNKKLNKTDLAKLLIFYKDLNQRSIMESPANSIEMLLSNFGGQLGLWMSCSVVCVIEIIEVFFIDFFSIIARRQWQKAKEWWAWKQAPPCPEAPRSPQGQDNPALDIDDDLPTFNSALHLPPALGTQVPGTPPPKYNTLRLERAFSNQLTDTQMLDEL
Protocol: Cloning, in vitro transcription, and heterologous expression of δ802 ENaC and two-electrode voltage clamping assay. δ802 and other ENaC subunits were generated in human ENaC cDNAs cloned into a pGEM HE vector [4], [76]. cRNAs of human α, β, and γ ENaC were prepared as described previously. The stoichiometry of native ENaC complexes is unclear to date. Based on the studies in the last decade, several models have been proposed for αβγ ENaC channels: 1α1β1γ, 2α1β1γ, 3α3β3γ. Based on the EM structure of human αβγ ENaC [35], the currently acceptable model of human αβγ ENaC complexes is heterotrimeric (1α1β1γ). Thus we microinjected δ802:β:γ in a 1:1:1 subunit ratio. Oocytes were surgically removed from appropriately anesthetized adult female Xenopus laevis (Xenopus Express). Briefly, the ovarian tissue was removed from the frog under anesthesia by tricaine-S (Western Chemicals) through a small incision in the lower abdomen. Ovarian lobes were removed and digested in OR-2 calcium-free medium (in mM: 82.5 NaCl, 2.5 KCl, 1.0 MgCl2, 1.0 Na2HPO4, and 10.0 HEPES, pH 7.5) with the addition of 2 mg/ml collagenase (Roche, Indianapolis). Defolliculated oocytes were injected with ENaC cRNAs into the cytosol (25 ng per oocyte in 50 nl of RNase-free water) and incubated in regular OR-2 medium at 18°C. The two-electrode voltage-clamp technique was used to record whole-cell currents 48 h post injection. Oocytes were impaled with two electrodes filled with 3M KCl, having resistance of 0.5 - 2 MΩ. A TEV-200A voltage-clamp amplifier (Dagan) was used to clamp oocytes with concomitant recording of currents. Two reference electrodes were connected to the bath. The continuously perfused bathing solution was ND-96 medium (in mM: 96.0 NaCl, 1.0 MgCl2, 1.8 CaCl2, 2.5 KCl, and 5.0 HEPES, pH 7.5). Whole-cell currents were recorded as previously reported. Experiments were controlled by pCLAMP 10.7 software (Molecular Devices), and currents at -40 mV, -100 mV, and +80 mV were continuously monitored with data recorded at intervals of 10 sec. Data were sampled at the rate of 200 Hz and filtered at 50 Hz.

N=C(N)NC(=O)c1nc(Cl)c(N)nc1N [amiloride]
Ki ([1]; Isc, Ussing chamber, amiloride 1 - 1,000 μM, n=5, read-out: ki value (logistic function), δ-ENaC MTE monolayers (converted)): 3.04 ± 0.26 µM

Ac-LRGTLPHPLQRLR-NH2 [α-13 peptide]
α-13 inhibitable fraction of αβγ-ENaC channels after plasmin / aprotinin pre-treatment (human αβγ-ENaC; n=8, Figure 3E): not significantly affected by fibrinolytic activity | IC50 (human αβγ-ENaC; oocytes, current at -100 mV, n=4, Chi^2 = 0.44, R^2 = 0.993, read-out: IC50 on αβγ-ENaC channels (Hill equation)): 0.1 ± 0.01 µM | inhibition of human αβγ-ENaC current (human αβγ-ENaC; α-13 300 μM compared with amiloride 10 μM, -100 mV, subsequent amiloride did not reduce activity further): same efficacy as amiloride | α-13 peptide-inhibitable fraction of Isc, δ802-ENaC cells ([1]; α-13 300 μM apical, MTE monolayers, n=6): 52%

B1: plasmin: serine protease of the plasmin(ogen) signal pathway for fibrinolysis (protein, UniProt P00747 20-580; P00747 581-810, looked up)
Plasmin heavy chain A: EPLDDYVNTQGASLFSVTKKQLGAGSIEECAAKCEEDEEFTCRAFQYHSKEQQCVIMAENRKSSIIIRMRDVVLFEKKVYLSECKTGNGKNYRGTMSKTKNGITCQKWSSTSPHRPRFSPATHPSEGLEENYCRNPDNDPQGPWCYTTDPEKRYDYCDILECEEECMHCSGENYDGKISKTMSGLECQAWDSQSPHAHGYIPSKFPNKNLKKNYCRNPDRELRPWCFTTDPNKRWELCDIPRCTTPPPSSGPTYQCLKGTGENYRGNVAVTVSGHTCQHWSAQTPHTHNRTPENFPCKNLDENYCRNPDGKRAPWCHTTNSQVRWEYCKIPSCDSSPVSTEQLAPTAPPELTPVVQDCYHGDGQSYRGTSSTTTTGKKCQSWSSMTPHRHQKTPENYPNAGLTMNYCRNPDADKGPWCFTTDPSVRWEYCNLKKCSGTEASVVAPPPVVLLPDVETPSEEDCMFGNGKGYRGKRATTVTGTPCQDWAAQEPHRHSIFTPETNPRAGLEKNYCRNPDGDVGGPWCYTTNPRKLYDYCDVPQCAAPSFDCGKPQVEPKKCPGR
Plasmin light chain B: VVGGCVAHPHSWPWQVSLRTRFGMHFCGGTLISPEWVLTAAHCLEKSPRPSSYKVILGAHQEVNLEPHVQEIEVSRLFLEPTRKDIALLKLSSPAVITDKVIPACLPSPNYVVADRTECFITGWGETQGTFGAGLLKEAQLPVIENKVCNRYEFLNGRVQSTELCAGHLAGGTDSCQGDSGGPLVCFEKDKYILQGVTSWGLGCARPNKPGVYVRVSRFVTWIEGVMRNN
modifications: Plasmin
notes: serine protease of the plasmin(ogen) signal pathway for fibrinolysis
effect of pre-treatment on αβγ-ENaC activity (human αβγ-ENaC; oocytes pre-treated, currents at -100 mV, n=5, Figure 3D): potentiated
